Experiments:
[1] = logP determination via HPLC retention times (calibration with unbranched alkan-2-ones); type: physicochemical
Source text: Die Kalibrierung wurde jeweils mit unverzweigten Alkan-2-onn (3 bis 16 Kohlenstoff Atome) mit bekannten IogP Werten durchgeführt (Bestimmung von den logP Werten über die Retentionszeiten durch lineare Interpolation zwischen zwei bestimmten Alkazionen). Die Lambda-max Werte wurden jeweils in den Maxima der Chromatographie-Signale durch UV Spektren zwischen 190nm und 400nm bestimmt.

Venturia inaequalis = test: Venturia test (apple) / protective; type: in vivo; settings: 100 ppm Wirkstoff; apple plants sprayed protectively; evaluation 10 days after inoculation
Source text: Venturia - Test (Apfel) / protektiv
(§1) Zur Herstellung einer zweckmäßigen Wirkstoffzubereitung vermischt man 1 Gewichtsteil Wirkstoff mit den angegebenen Mengen Lösungsmittel und Emulgator und verdünnt das Konzentrat mit Wasser auf die gewünschte Konzentration.
Zur Prüfung auf protektive Wirksamkeit werden junge Pflanzen mit der Wirkstoffzubereitung in der angegebenen Aufwandmenge besprüht. Nach Antrocknen des Spritzbelages werden die Pflanzen mit einer wäßrigen Konidiensuspension des Apfelschorferregers Venturia inaequalis inokuliert und verbleiben dann 1 Tag bei ca. 20°C und 100% relativer Luftfeuchtigkeit in einer Inkubations-kabine.
Die Pflanzen werden dann im Gewächshaus bei ca, 21°C und einer relativen Luftfeuchtigkeit von ca. 90% aufgestellt.
(§2) 10 Tage nach der Inokulation erfolgt die Auswertung. Dabei bedeutet 0% ein Wirkungsgrad, der demjenigen der Kontrolle entspricht, während ein Wirkungsgrad von 100% bedeutet, daß kein Befall beobachtet wird.

Botrytis cinerea = test: Botrytis test (bean) / protective; type: in vivo; settings: 250 ppm Wirkstoff; bean plants sprayed protectively; lesion size 2 days after inoculation
Source text: Botrytis - Test (Bohne) / protektiv
as §1
Zur Prüfung auf protektive Wirksamkeit werden junge Pflanzen mit der Wirkstoff-zubereitung in der angegebenen Aufwandmenge besprüht. Nach Antrocknen des Spritzbelages werden auf jedes Blatt 2 kleine mit Botrytis cinerea bewachsene Agarstückchen aufgelegt. Die inokulierten Pflanzen werden in einer abgedunkelten Kammer bei ca. 20°C und 100% relativer Luftfeuchtigkeit aufgestellt.
2 Tage nach der Inokulation wird die Größe der Befallsflecken auf den Blättern ausgewertet. Dabei bedeutet 0% ein Wirkungsgrad, der demjenigen der Kontrolle entspricht, während ein Wirkungsgrad von 100% bedeutet, daß kein Befall beobachtet wird.

[2] = test system: Erysiphe graminis f.sp, hordei; test: Erysiphe test (barley) / protective; type: in vivo; settings: 1000 ppm Wirkstoff; barley plants sprayed protectively; evaluation 7 days after inoculation
Source text: Erysiphe-Test (Gerste) / protektiv
as §1
Zur Prüfung auf protektive Wirksamkeit besprüht man junge Pflanzen mit der Wirkstoffzubereitung in der angegebenen Aufwandmenge.
Nach Antrocknen des Spritzbelages werden die Pflanzen mit Sporen von Erysiphe graminis f.sp, hordei bestäubt.
Die Pflanzen werden in einem Gewächshaus bei einer Temperatur von ca. 20°C und einer relativen Luftfeuchtigkeit von ca. 80 % aufgestellt, um die Entwicklung von Mehltaupusteln zu begünstigen.
7 Tage nach der Inokulation erfolgt die Auswertung, Dabei bedeutet 0 % ein Wirkungsgrad, der demjenigen der Kontrolle entspricht, während ein Wirkungsgrad von 100 % bedeutet, daß kein Befall beobachtet wird.

Leptosphaeria nodorum = Leptosphaeria nodorum test (wheat) / protective; type: in vivo; settings: 1000 ppm Wirkstoff; wheat plants sprayed protectively; evaluation 10 days after inoculation
Source text: Leptosphaeria nodorum-Test (Weizen) / protektiv
(§3) Zur Herstellung einer zweckmäßigen Wirkstoffzubereitung vermischt man 1 Gewichtsteil Wirkstoff mit den angegebenen Mengen Lösungsmittel und Emulgator und verdünnt das Konzentrat mit Wasser auf die gewünschte Konzentration,
(§4) Zur Prüfung auf protektive Wirksamkeit werden junge Pflanzen mit der Wirkstoffzubereitung in der angegebenen Aufwandmenge besprüht Nach Antrocknen des Spritzbelages werden die Pflanzen mit einer Sporensuspension von Leptosphaeria nodorum besprüht, Die Pflanzen verbleiben 48 Stunden bei 20°C und 100 % relativer Luftfeuchtigkeit in einer Inkubationskabine.
Die Pflanzen werden in einem Gewächshaus bei einer Temperatur von ca. 20°C und einer relativen Luftfeuchtigkeit von 80 % aufgestellt.
as §2

Pyrenophora teres = Pyrenophora teres test (barley) / protective; type: in vivo; settings: 1000 ppm Wirkstoff; barley plants sprayed protectively; evaluation 8 days after inoculation
Source text: Pyrenophora teres-Test (Gerste) / protektiv
as §1
as §4, with “angegeben” for “angegebenen”, “besprüht,” for “besprüht”, “Konidiensuspension” for “Sporensuspension”, “Pyrenophora teres besprüht.” for “Leptosphaeria nodorum besprüht,”
Die Pflanzen werden dann in einem Gewächshaus bei einer Temperatur von ca. 20°C und relativen Luftfeuchtigkeit von ca. 80 % aufgestellt.
8 Tage nach der Inokulation erfolgt die Auswertung. Dabei bedeutet 0 % ein Wirkungsgrad, der demjenigen der Kontrolle entspricht, während ein Wirkungsgrad von 100 % bedeutet, daß kein Befall beobachtet wird, […]

[3] = test system: Fusarium nivale (var. majus); test: Fusarium nivale (var. majus) test (wheat) / protective; type: in vivo; settings: 1000 ppm Wirkstoff; wheat plants sprayed protectively; evaluation 6 days after inoculation
Source text: Fusarium nivale (var. majus)-Test (Weizen) / protektiv
as §3
Zur Prüfung auf protektive Wirksamkeit werden junge Pflanzen mit der Wirkstoffzubereitung in der angegebenen Aufwandmenge besprüht. Nach Antrocknen des Spritzbelages werden die Pflanzen mit einer Konidiensuspension von Fusarium nivale (var. majus) besprüht.
Die Pflanzen werden in einem Gewächshaus unter lichtdurchlässigen Inkubationshauben bei einer Temperatur von ca.15°C und einer relativen Luftfeuchtigkeit von ca. 100 % aufgestellt.
6 Tage nach der Inokulation erfolgt die Auswertung. Dabei bedeutet 0% ein Wirkungsgrad, der demjenigen der Kontrolle entspricht, während ein Wirkungsgrad von 100% bedeutet, daß kein Befall beobachtet wird.

[4] = HPLC on reversed-phase C 18 columns, EEC Directive 79/831 Annex V.A8, acidic aqueous mobile phase / acetonitrile, linear gradient 10% to 95% acetonitrile
[5] = from retention times, linear interpolation between alkan-2-ones

Structure (SMILES) | chromatographic logP [1, 4] | Wirkungsgrad (Venturia inaequalis) [%] | chromatographic logP [1, 5] | further results
Cc1ccc(-c2c(C)nnc(Cl)c2-c2c(F)cccc2F)nc1C [Beispiel 101] | 2.88 | ≥ 70 | – | –
Cc1nnc(Cl)c(-c2c(F)cccc2F)c1-c1ccc(Cl)s1 [Beispiel 103] | 3.84 | ≥ 70 | – | Wirkungsgrad (Botrytis cinerea): ≥ 70%
Cc1nnc(Cl)c(-c2c(F)cccc2Cl)c1-c1ccc(Cl)s1 [Beispiel 94] | 4.16 | ≥ 70 | – | Wirkungsgrad (Botrytis cinerea): ≥ 70%
Cc1nnc(Cl)c(-c2ccc(F)cc2Cl)c1-c1cccs1 [Beispiel 37] | 3.45 | ≥ 70 | – | Wirkungsgrad (Botrytis cinerea): ≥ 70%
Cc1ccc(-c2c(C)nnc(Cl)c2-c2c(Cl)cccc2Cl)nc1C [compound 47] | 4.16 | – | – | –
COc1ccccc1-c1c(Cl)nnc(C)c1-c1ccc(Cl)s1 [compound 182] | 3.65 | – | – | –
Cc1nnc(Cl)c(-c2ccc(F)cc2Cl)c1-c1ccc(Cl)s1 [compound 38] | 4.21 | – | – | –
Cc1ccc(-c2c(C)n[nH]c(=O)c2-c2c(Cl)cccc2Cl)nc1C [5-(5,6-Dimethyl-2-pyridyl)-4-(2,6-dichlorphenyl)-6-methylpyridazin-3(2H)-on] | – | – | 2.11 | –
Cc1nnc(Cl)c(-c2c(F)cccc2F)c1-c1cccs1 [Beispiel 100] | 3.12 | ≥ 70 | – | Wirkungsgrad (Botrytis cinerea): ≥ 70%; Wirkungsgrad [2]: ≥ 70%; Wirkungsgrad (Leptosphaeria nodorum): ≥ 70%; Wirkungsgrad (Pyrenophora teres): ≥ 70%; Wirkungsgrad [3]: ≥ 70%
Cc1nnc(Cl)c(-c2cccc(Cl)c2)c1-c1ccc(Cl)s1 [compound 173] | 4.07 | – | – | –
Cc1nnc(Cl)c(-c2c(F)cc(F)cc2F)c1-c1ccc(Cl)s1 [compound 67] | 4.11 | – | – | –
CC1(O)OC(=O)C(c2ccc(F)cc2Br)=C1c1cccs1 (stereo not shown) [3-(2-Brom-4-fluorphenyl)-4-(2-thienyl)-5-hydroxy-5-methylfuran-2(5H)-on] | – | – | 2.64 | –
Cc1n[nH]c(=O)c(-c2ccccc2F)c1-c1cccs1 [4-(2-Fluorphonyl)-5-(2-thienyl)-6-methylpyridazin-3(2H)-on] | – | – | 2.06 | –
CC1(O)OC(=O)C(c2ccc(F)cc2Br)=C1c1ccc(Cl)s1 (stereo not shown) [3-(2-Brom-4-fluorphenyl)-4-(5-chlor-2-thienyl)-5-hydroxy-5-methylfuran-2(5H)-on] | – | – | 3.3 | –
CC1(O)OC(=O)C(c2cccc3c2OC(F)(F)O3)=C1c1ccc(Cl)s1 (stereo not shown) [4-(5-Chlor-2-thienyl)-3-(2,2-difluor-1,3-benzodioxol-4-yl)-5-hydroxy-5-methylfuran-2(5H)-on] | – | – | 3.41 | –
